# Read-outs that look alike come from different tables or passages of the source.
# Assays:
# [1] = test system: Bacillus subtilis-transforming DNA; conditions: reactive species toward Bacillus subtilis-transforming DNA; cited from earlier work
# [2] = test system: Salmonella typhimurium TA97
# [3] = test system: Salmonella typhimurium TA98
# mouse sarcoma 180 cells = mouse sarcoma 180 cells in vitro; cited from earlier work
# [4] = 10 female Wistar rats; at 15 months; cited from earlier work
# [5] = test system: Salmonella typhimurium TA98; conditions: ref 35 (McCartney et al.); cited from earlier work
# [6] = Sprague-Dawley rats; cited from earlier work
# [7] = test system: sarcoma 180 ascites cells; conditions: mice bearing sarcoma 180 ascites cells; cited from earlier work
# sulfotransferase = conditions: cited from earlier work
# [8] = rat, in vivo; cited from earlier work
# cytochrome P450 = conditions: phenobarbital-inducible cytochrome P450, presumably CYP2B; cited from earlier work
# [9] = absence of S9, 100 ng/plate or less
# [10] = with (+) Aroclor 1254 rat hepatic S9 10% v/v, 100 ng/plate
compound,measurement,setting,value
CC(=O)On1cnc2ncnc-2c1N [1-acetoxyadenine],mutagenicity,[1],weak mutagen
"Nc1ccc2cc3ccccc3cc2c1 [2-Aminoanthracene, reference compound]","histidine revertants/plate, TA97",[2]; Salmonella typhimurium,600 histidine revertants/plate
same,"histidine revertants/plate, TA98",[3]; Salmonella typhimurium,865 histidine revertants/plate
ONc1ncnc2nc[nH]c12 [6-Hydroxylaminopurine],"reversion rate relative to spontaneous reversion rate, TA97","[2]; 1 ng/plate, without metabolic activation",twice the spontaneous reversion rate
same,toxicity toward TA97,[2]; 100 ng/plate,toxic
same,"histidine revertants/plate, TA97","[2]; with (+) S9, 1 ng/plate",113 + 4 histidine revertants/plate
same,toxicity toward TA98,[3]; 1 ng/plate,still toxic
same,toxicity toward TA98,[3]; 100 ng/plate,toxic
same,toxicity toward TA98,[3]; concentration not given,extremely toxic
same,"histidine revertants/plate, TA98","[3]; with (+) S9, 1 ng/plate",toxic
same,"histidine revertants/plate, TA98","[3]; without (-) S9, 1 ng/plate",toxic
same,effect on cells,mouse sarcoma 180 cells,induced mitotic inhibition and nuclear degeneration
same,tumors produced,[4],only one tumor
same,mutagenicity toward TA98,[5],inactive
same,oncogenicity,[6],completely inactive
same,survival time,[7],prolonged the survival time
ONc1ncnc2c1ncn2Cc1ccccc1 [9-Benzyl-6-hydroxylaminopurine],mutagenic activity toward TA97 (in words),[2]; [9],highly active
same,mutagenic activity toward TA98 (in words),[3]; [9],inactive
Nc1ncnc2c1ncn2Cc1ccccc1 [9-Benzyladenine],"histidine revertants/plate, TA98","[3]; with (+) S9, 100 ng/plate",131 + 18 histidine revertants/plate
Cn1cnc2c(N)[n+]([O-])cnc21 [9-Methyladenine-1-N-oxide],"histidine revertants/plate, TA98","[3]; with (+) S9, 100 ng/plate",118 + 9 histidine revertants/plate
Cn1cnc2c(N)ncnc21 [9-Methyladenine],"histidine revertants/plate, TA97",[2]; [10],88 + 4 histidine revertants/plate
same,"histidine revertants/plate, TA98","[3]; without (-) S9, 100 ng/plate",21 + 6 histidine revertants/plate
Nc1c2[nH]cnc2nc[n+]1[O-] [Adenine-1-N-oxide],"histidine revertants/plate, TA98","[3]; without (-) S9, 100 ng/plate",19 + 6 histidine revertants/plate
same,activity as a sulfate acceptor,sulfotransferase,inactive
same,tumor production,[8],failed to produce tumors
Nc1ncnc2nc[nH]c12 [Adenine],"histidine revertants/plate, TA97",[2]; [10],104 + 12 histidine revertants/plate
same,"histidine revertants/plate, TA98","[3]; with (+) S9, 100 ng/plate",76 + 11 histidine revertants/plate
same,oxidation to adenine-1-N-oxide,cytochrome P450,failed to oxidize

# Reference: PMC1521118 (Environmental Health Perspectives, 1993)
